Assay results as given in ChEMBL document CHEMBL3507680, “University of Dundee, Gates Library screen for HepG2 cell viability”.

Assay: Human HepG2 cell viability assay in 384 well format
Assay type: toxicity, cell-based
Set-up: dose 125 nL, time 70.5 hour; cytotoxicity at 70.5 h: concentration not given beside the values
Conditions: HepG2 cells, read-out: Inhibition

Going from O=C1CCN(C(=O)C2(c3ccc(F)cc3)CCOCC2)CCN1 to O=C1CCCN1C1CCCN(CCOc2ccc(F)cc2)C1 (stereo not given), the cytotoxicity at 70.5 h rises from -8.05% to -6.91%.

Compared with CN(C)C(=O)CO[C@H]1CN(Cc2ccoc2)[C@@H]2COC[C@H]12, CN(C)C(=O)CN1C[C@@H]2CC[C@H](C1)N(Cc1c(F)cccc1Cl)C2 is lower in cytotoxicity at 70.5 h: -5.51% for the first, -6.28% for the second.

First: CC(C)(N)CN1CCC(c2nnc(CN3CCCC3)n2C2CC2)CC1
Second: Cn1cnnc1C1CCCN(C(=O)c2cc(Cl)c(Cl)n2C)C1 (stereo not given)
The cytotoxicity at 70.5 h of the first is higher: -0.439% for the first, -8.15% for the second.

Compared with O=C(OCC1CCN(c2ccccc2)C1)c1cscn1 (stereo not given), CN1CC(c2ccccc2)CC12CCN(C(=O)c1ccc(Cl)cn1)CC2 (stereo not given) is higher in cytotoxicity at 70.5 h: -103% for the first, 19.6% for the second.

Going from O=C(NCCN1CCNC1=O)c1cc(-c2ccc(O)cc2)n[nH]1 to Cc1ccc(C(=O)N(Cc2ccc(F)cc2)C2CC2)c(=O)[nH]1, the cytotoxicity at 70.5 h rises from -10.9% to -3.98%.

First: CCN1CCc2[nH]cnc2C12CCN(c1ccc(Cl)c(C(=O)O)n1)CC2
Second: COCCC(=O)N1CCC2(CCCN2Cc2cccc(Cl)c2)C1 (stereo not given)
The cytotoxicity at 70.5 h of the first is higher: -2.9% for the first, -53.8% for the second.

First: CNC(=O)N1CCc2nc(C(=O)Nc3cccnc3)sc2CC1
Second: COc1ccc(CNC(=O)Nc2cccnc2N2CCCC2)cc1O
The cytotoxicity at 70.5 h of the first is higher: -3.13% for the first, -8.02% for the second.

Going from COc1cc(CCC(=O)N2CCC(c3cc4nccnc4[nH]3)CC2)on1 to CCS(=O)(=O)Nc1ccc2[nH]c(C3CCC3)nc2c1, the cytotoxicity at 70.5 h falls from 28.5% to -6.11%.

Going from Nc1nc2c(c(NCC(c3cccnc3)N3CCOCC3)n1)CCCC2 (stereo not given) to COc1ccnc(N2CCN(C(=O)N3CCOCC3)CC2)n1, the cytotoxicity at 70.5 h rises from -12.1% to -10.7%.

Compared with O=C(c1nc(=O)[nH][nH]1)N1CCCC(c2cc(C(F)(F)F)[nH]n2)C1 (stereo not given), Cc1n[nH]c(C)c1Sc1ccccc1NC(=O)N1CCCC(C(N)=O)C1 (stereo not given) is lower in cytotoxicity at 70.5 h: 34.5% for the first, 5.35% for the second.

First: Cc1nccn1-c1ccc(C(=O)NCC(F)(F)F)nn1
Second: CC(NC(=O)c1ccc(F)cc1F)c1cnn(C)c1 (stereo not given)
The cytotoxicity at 70.5 h of the first is higher: -1.99% for the first, -4.48% for the second.

Going from O=C(NCCc1nccs1)c1n[nH]c2c1CCC2 to O=C(NCCc1c[nH]cn1)c1ccccc1C1CCNC1 (stereo not given), the cytotoxicity at 70.5 h rises from -11.1% to 18%.

Compared with O=C(Cc1ccc(F)cc1)NS(=O)(=O)c1ccc(F)c(F)c1, CN(Cc1ccccc1O)CC1CCCN(CCc2ccc(Cl)cc2)C1 (stereo not given) is higher in cytotoxicity at 70.5 h: -2.89% for the first, -2.45% for the second.

Compared with Cc1ccccc1C(=O)NC[C@@H]1CCN(C(=O)C2(O)CCCC2)C[C@H]1O, OCc1cc2ccccc2nc1N1CCCC1 is lower in cytotoxicity at 70.5 h: -4.64% for the first, -15.5% for the second.

Going from CN(Cc1ccco1)[C@@H]1CN(Cc2ccccn2)C[C@@H]2CCCO[C@@H]21 to O=C(CNc1ccc(OC2CCOC2)cc1)NCc1ccco1 (stereo not given), the cytotoxicity at 70.5 h falls from -9.21% to -21.4%.

First: CCC(C)n1cnc(S(=O)(=O)N(Cc2cccnc2)C(C)C)c1 (stereo not given)
Second: CC(Cn1cccn1)NCC(=O)N(C)Cc1ccsc1 (stereo not given)
The cytotoxicity at 70.5 h of the first is lower: 3.97% for the first, 35.4% for the second.

Compared with CC(C)(CO)Nc1c(NCc2ccccn2)c(=O)c1=O, COc1c(CNCCC(=O)Nc2cccc(C)n2)c(C)nn1C is higher in cytotoxicity at 70.5 h: -8.21% for the first, -1.12% for the second.

First: Cc1cnc(N)nc1NCCSCc1[nH]cnc1C
Second: Cc1nc(C)n(CC2CN(c3nnc(C)c(C)c3C#N)CCO2)n1 (stereo not given)
The cytotoxicity at 70.5 h of the first is lower: -1.94% for the first, 5.76% for the second.

Going from Cc1nc(C)c(C(=O)N2Cc3ccccc3OCC2Cn2ccnc2)o1 (stereo not given) to Cc1ccc(OC2CCN(C(=O)C(C)Cn3cccn3)CC2)cc1 (stereo not given), the cytotoxicity at 70.5 h rises from -1.03% to 0.0943%.

First: CC(C)NC(=O)c1ccc2nnc(C3CN(C)CCN3C)n2c1 (stereo not given)
Second: CC(=O)NCc1nnc2n1CCN(c1nc(C)nc3sccc13)CC2
The cytotoxicity at 70.5 h of the first is lower: -8.09% for the first, -7.13% for the second.

First: COc1ccc(-c2csc3c2c(N)nc(=O)n3CC(N)=O)cc1
Second: COc1ccc(Cl)cc1CS(=O)(=O)Cc1cc(C)on1
The cytotoxicity at 70.5 h of the first is lower: -14.6% for the first, -5.88% for the second.

Compared with COc1cc(CNCCc2cnn(C)c2)cc2c1OCO2, CCNC(=O)Cc1ccc(NC(=O)NC(CC)CC)cc1 is higher in cytotoxicity at 70.5 h: -8.59% for the first, 1.05% for the second.

N#CCCN(Cc1ccco1)C(=O)CCCc1ccccc1 showed a cytotoxicity at 70.5 h of -4.22%.
